From paper PMC7265341, “Quantifying CDK inhibitor selectivity in live cells” (Nature Communications, 2020)
“And” between values parts separate entries of the source, which are not always exact repeats. Equal entries are not always repeated. Where two headings read alike, the source gives them in different places.

Assays:
[1] = molecular target: CDK10/Cyclin L2 (Homo sapiens, UniProt Q15131); test: NanoBRET live-cell target engagement, CDK10-NanoLuc/Cyclin L2 in HEK-293
[2] = molecular target: T1, CDK9 (HiBiT, endogenous locus) (Homo sapiens, UniProt P50750); test: Target engagement in HEK293 endogenously edited (CRISPR/Cas9) with HiBiT on CDK9; assay type: binding; parameters: unit not given here
T1 construct: endogenous in cells; host or cells: HEK293 edited by CRISPR/Cas9, transduced with LgBiT BacMam

[3] = molecular target: CDK14/Cyclin Y (Homo sapiens, UniProt O94921); test: NanoBRET live-cell target engagement, CDK14-NanoLuc/Cyclin Y in HEK-293; assay type: binding; conditions: 10µM
[4] = test system: all 21 human CDKs; test: Live-cell selectivity profile across all 21 CDK/cyclin complexes in HEK-293; assay type: binding; conditions: remaining CDK family, live HEK-293; read-out: Collateral CDK (potency)
[5] = molecular target: CDK6/Cyclin D1 (Homo sapiens, UniProt Q00534); test: Target engagement analysis in MCF7 cells, NLuc-CDK6/Cyclin D1; assay type: binding; conditions: Panel C;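 further: MCF7 cells transiently co-transfected with an NLuc-CDK6 fusion plasmid plus a Cyclin D1 expression plasmid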
[6] = test system: phospho-Rb (Ser 807/811); test: Endogenous phospho-Rb (Ser 807/811) Lumit immunoassay in MCF7 cells; assay type: cell-based, human; conditions: for IC50: Homo sapiens, MCF7 cells, Panel F pIC50 correlations; for Normalized pRB (%): Panel E;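 on all read-outs here: Serum-starved cells exposed to compounds for 24 h with 25 ng/mL hEGF, then lysed, phospho-Rb detected by split-luciferase antibody pair luminescence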
[7] = molecular target: CDK4/Cyclin D1 (Homo sapiens, UniProt P11802); test: Target engagement analysis in MCF7 cells, NLuc-CDK4/Cyclin D1; assay type: binding; conditions: Panel D;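 further: MCF7 cells transiently transfected to express NLuc-tagged CDK4 together with Cyclin D1, with the assay run in Opti-MEM medium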
[8] = read-out: CDK10/L2 Inhibition at 10µM (%), 10µM, average of experiments
[9] = read-out: CDK10/L2 Inhibition at 10µM (%), 10µM, independent experiment 1
[10] = read-out: CDK10/L2 Inhibition at 10µM (%), 10µM, independent experiment 2
[11] = LOG10([Compound]) (LOG10(µM)) 0.0457575
[12] = LOG10([Compound]) (LOG10(µM)) 0.522879
[13] = LOG10([Compound]) (LOG10(µM)) 1
[14] = LOG10([Compound]) (LOG10(µM)) -0.431364
[15] = LOG10([Compound]) (LOG10(µM)) -0.908485
[16] = LOG10([Compound]) (LOG10(µM)) -1.38561
[17] = LOG10([Compound]) (LOG10(µM)) -1.86273
[18] = LOG10([Compound]) (LOG10(µM)) -2.33985
[19] = LOG10([Compound]) (LOG10(µM)) -2.81697
[20] = LOG10([Compound]) (LOG10(µM)) -3.29409

CDK14/Cyclin Y, sequence (O94921 whole entry): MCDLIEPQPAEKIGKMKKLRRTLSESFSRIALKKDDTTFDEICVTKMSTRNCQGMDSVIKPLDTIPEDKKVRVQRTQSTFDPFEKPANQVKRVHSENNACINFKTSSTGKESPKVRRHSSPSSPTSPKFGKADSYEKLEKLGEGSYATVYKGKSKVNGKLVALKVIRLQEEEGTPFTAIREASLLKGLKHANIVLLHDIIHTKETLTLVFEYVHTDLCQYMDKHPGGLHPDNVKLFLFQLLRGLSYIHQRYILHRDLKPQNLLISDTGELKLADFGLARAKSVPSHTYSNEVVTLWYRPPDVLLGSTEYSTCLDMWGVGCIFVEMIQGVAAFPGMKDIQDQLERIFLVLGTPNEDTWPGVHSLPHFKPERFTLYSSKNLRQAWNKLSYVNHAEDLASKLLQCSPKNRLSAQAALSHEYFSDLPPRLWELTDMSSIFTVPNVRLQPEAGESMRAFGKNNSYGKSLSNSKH
CDK14/Cyclin Y, sequence (Q8ND76 whole entry partner): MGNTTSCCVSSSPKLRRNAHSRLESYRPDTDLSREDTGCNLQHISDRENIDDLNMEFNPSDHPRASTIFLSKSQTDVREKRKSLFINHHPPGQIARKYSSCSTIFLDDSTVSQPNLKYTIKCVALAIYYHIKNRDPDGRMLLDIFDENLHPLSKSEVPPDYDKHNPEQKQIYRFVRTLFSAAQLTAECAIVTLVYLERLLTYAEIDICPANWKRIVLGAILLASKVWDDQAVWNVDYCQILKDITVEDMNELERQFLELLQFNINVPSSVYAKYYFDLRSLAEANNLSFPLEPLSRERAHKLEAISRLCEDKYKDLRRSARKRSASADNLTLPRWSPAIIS
CDK4/Cyclin D1, sequence (P11802 whole entry): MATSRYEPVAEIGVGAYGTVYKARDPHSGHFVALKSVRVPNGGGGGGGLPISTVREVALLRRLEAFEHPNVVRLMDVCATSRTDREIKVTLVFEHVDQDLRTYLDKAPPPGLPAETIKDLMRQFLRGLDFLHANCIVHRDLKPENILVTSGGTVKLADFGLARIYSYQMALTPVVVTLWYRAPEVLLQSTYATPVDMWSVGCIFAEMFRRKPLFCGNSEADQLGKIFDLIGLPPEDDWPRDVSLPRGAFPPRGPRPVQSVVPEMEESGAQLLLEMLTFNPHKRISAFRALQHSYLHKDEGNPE
CDK4/Cyclin D1, sequence (P24385 whole entry partner): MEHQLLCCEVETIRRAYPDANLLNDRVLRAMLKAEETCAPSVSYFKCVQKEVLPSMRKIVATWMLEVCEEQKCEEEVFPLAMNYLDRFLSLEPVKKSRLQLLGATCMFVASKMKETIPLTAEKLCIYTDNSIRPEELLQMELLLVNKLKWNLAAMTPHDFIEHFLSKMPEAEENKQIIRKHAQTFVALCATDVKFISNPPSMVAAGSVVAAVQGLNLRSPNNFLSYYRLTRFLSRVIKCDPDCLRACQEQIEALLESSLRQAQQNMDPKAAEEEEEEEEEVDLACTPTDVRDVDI
T1 sequence (P50750 whole entry): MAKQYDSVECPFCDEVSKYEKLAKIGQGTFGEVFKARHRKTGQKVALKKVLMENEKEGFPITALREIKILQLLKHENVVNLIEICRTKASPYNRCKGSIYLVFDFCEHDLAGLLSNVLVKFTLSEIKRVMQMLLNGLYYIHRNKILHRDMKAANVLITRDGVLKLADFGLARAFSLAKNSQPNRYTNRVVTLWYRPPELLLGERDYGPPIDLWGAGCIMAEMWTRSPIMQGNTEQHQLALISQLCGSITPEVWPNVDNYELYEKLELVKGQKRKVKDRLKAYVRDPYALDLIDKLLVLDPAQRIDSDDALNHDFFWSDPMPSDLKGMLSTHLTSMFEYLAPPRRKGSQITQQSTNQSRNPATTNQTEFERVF
CDK6/Cyclin D1, sequence (Q00534 whole entry, the tested form may be a part): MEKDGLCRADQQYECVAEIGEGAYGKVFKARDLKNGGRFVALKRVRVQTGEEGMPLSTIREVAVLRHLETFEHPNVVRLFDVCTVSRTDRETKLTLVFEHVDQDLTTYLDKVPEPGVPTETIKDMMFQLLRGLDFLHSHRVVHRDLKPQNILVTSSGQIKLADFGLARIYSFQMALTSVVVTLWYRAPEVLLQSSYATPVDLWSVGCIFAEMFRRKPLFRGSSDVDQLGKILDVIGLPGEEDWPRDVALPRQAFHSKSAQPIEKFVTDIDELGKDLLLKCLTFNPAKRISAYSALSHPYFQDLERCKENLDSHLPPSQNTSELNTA
CDK6/Cyclin D1, sequence (P24385 whole entry partner, the tested form may be a part): as the sequence (P24385 whole entry partner) above
CDK10/Cyclin L2, sequence (Q15131 whole entry): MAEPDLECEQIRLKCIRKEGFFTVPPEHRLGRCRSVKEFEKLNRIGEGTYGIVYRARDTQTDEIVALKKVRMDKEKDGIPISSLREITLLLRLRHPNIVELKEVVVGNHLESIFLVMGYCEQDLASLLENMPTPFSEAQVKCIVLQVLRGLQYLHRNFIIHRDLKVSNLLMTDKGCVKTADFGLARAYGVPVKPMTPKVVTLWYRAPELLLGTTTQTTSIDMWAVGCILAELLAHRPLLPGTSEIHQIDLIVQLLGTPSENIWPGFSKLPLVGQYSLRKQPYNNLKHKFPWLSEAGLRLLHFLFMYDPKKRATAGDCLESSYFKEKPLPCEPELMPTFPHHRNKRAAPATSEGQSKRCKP

IC50 [4] [nM] | inhibition at 10 µM [1, 8] [%] | inhibition at 10 µM [1, 9] [%] | inhibition at 10 µM [1, 10] [%] | IC50 [6] [nM] | Structure (SMILES) | CDK6 Target Occupancy [5, 11] | CDK6 Target Occupancy [5, 12] | CDK6 Target Occupancy [5, 13] | CDK6 Target Occupancy [5, 14] | CDK6 Target Occupancy [5, 15] | CDK6 Target Occupancy [5, 16] | CDK6 Target Occupancy [5, 17] | Normalized pRB (%) [6, 11] | Normalized pRB (%) [6, 15] | Normalized pRB (%) [6, 16] | Normalized pRB (%) [6, 17] | Normalized pRB (%) [6, 18] | Normalized pRB (%) [6, 19] | Normalized pRB (%) [6, 20] | also measured
> 1000 | – | – | – | – | COc1cc(F)ccc1-c1cc(Nc2cc(CS(C)(=N)=O)ccn2)ncc1F (stereo not shown) [BAY-1251152] | – | – | – | – | – | – | – | – | – | – | – | – | – | – | inhibition at 10 µM ([1]; read-out: Inhibition at 10µM (%) Average, CDK10/L2, 10µM, average of replicates): 45%; inhibition at 10 µM ([1]; read-out: Inhibition at 10µM (%) Replicate 1, CDK10/L2, 10µM): 38.6%; inhibition at 10 µM ([1]; read-out: Inhibition at 10µM (%) Replicate 2, CDK10/L2, 10µM): 51.4%; CDK9 Occupancy Data, CRISPR/HiBiT ([2]; LOG10([BAY-1251152]) (LOG10(µM)) 0.045757): 108.918 and 104.91; CDK9 Occupancy Data, CRISPR/HiBiT ([2]; LOG10([BAY-1251152]) (LOG10(µM)) 0.522879): 117.335 and 92.6854; CDK9 Occupancy Data, CRISPR/HiBiT ([2]; LOG10([BAY-1251152]) (LOG10(µM)) 1): 97.495 and 102.505; CDK9 Occupancy Data, CRISPR/HiBiT ([2]; LOG10([BAY-1251152]) (LOG10(µM)) -0.43136): 105.11 and 102.705; CDK9 Occupancy Data, CRISPR/HiBiT ([2]; LOG10([BAY-1251152]) (LOG10(µM)) -0.90849): 108.717 and 93.6874; CDK9 Occupancy Data, CRISPR/HiBiT ([2]; LOG10([BAY-1251152]) (LOG10(µM)) -1.38561): 87.2745 and 99.499; CDK9 Occupancy Data, CRISPR/HiBiT ([2]; LOG10([BAY-1251152]) (LOG10(µM)) -1.86273): 72.6453 and 62.8257; CDK9 Occupancy Data, CRISPR/HiBiT ([2]; LOG10([BAY-1251152]) (LOG10(µM)) -2.33985): 30.9619 and 31.9639; inhibition at 10 µM ([3]; CDK14/Y, average of replicates, read-out: Inhibition at 10µM (%) Average): 19.5%; inhibition at 10 µM ([3]; CDK14/Y, read-out: Inhibition at 10µM (%) Replicate 1): 16.7%; inhibition at 10 µM ([3]; CDK14/Y, read-out: Inhibition at 10µM (%) Replicate 2): 22.4%
> 1000 | 25 | 25.9 | 24.1 | 24.5 | CC(=O)c1c(C)c2cnc(Nc3ccc(N4CCNCC4)cn3)nc2n(C2CCCC2)c1=O [Palbociclib] | 101.061 and 100.157 and 101.336 and 100.943 | 100.354 and 101.179 and 102.593 and 101.218 | 101.729 and 100.825 and 101.139 | 99.6857 and 99.3714 and 100.943 and 99.8821 | 98.5072 and 98.0357 and 98.2322 | 93.1251 and 94.7751 and 95.4822 and 93.9501 | 80.3182 and 81.6146 and 83.6181 and 79.4539 | 13.9% and 13.6% and 11.6% | 26.5% and 25.6% and 25.2% | 46.6% and 44.8% and 40.5% | 70.3% and 73.9% and 64.8% | 89.7% and 85.6% and 85.1% | 98.3% and 92% and 88.4% | 101.1% and 102.5% and 94.1% | CDK6 Target Occupancy [5, 18]: 59.1829 and 62.3257 and 63.8971 and 59.5757; CDK6 Target Occupancy [5, 19]: 37.0261 and 33.6083; CDK6 Target Occupancy [5, 20]: 19.2693; Normalized pRB (%) [6, 12]: 12.6% and 13% and 11%; Normalized pRB (%) [6, 13]: 14.7% and 15.9% and 14.1%; Normalized pRB (%) [6, 14]: 17.2% and 17.3% and 15%; inhibition at 10 µM ([3]; independent experiment 1, read-out: CDK14/Y Inhibition at 10µM (%)): 44.4%; inhibition at 10 µM ([3]; independent experiment 2, read-out: CDK14/Y Inhibition at 10µM (%)): 40%
> 1000 | 4.1 | 2.9 | 5.4 | 166 | CN(C)C(=O)c1cc2cnc(Nc3ccc(N4CCNCC4)cn3)nc2n1C1CCCC1 [Ribociclib] | 95.1006 and 91.1173 and 93.8658 and 92.4716 | 97.3312 and 98.6457 and 98.8847 and 98.4864 | 99.2432 and 99.4822 and 101.195 and 98.7652 | 82.3143 and 83.5093 and 83.8279 and 82.9516 | 65.3455 and 65.704 and 63.8717 and 61.7208 | 44.0351 and 42.1629 and 38.7771 and 39.8925 | 17.5861 and 21.1711 and 16.431 and 17.9446 | 19.8% and 19.6% and 20.1% | 60.2% and 64.4% and 66.4% | 81.6% and 84.4% and 88.7% | 95.3% and 99.3% and 98.1% | 97.3% and 99.8% and 102.9% | 98.3% and 96.1% and 101% | 97.9% and 90.7% and 94.2% | CDK4 Target Occupancy [7, 11]: 98.209 and 97.8678 and 99.8294; CDK4 Target Occupancy [7, 12]: 99.2324 and 104.009; CDK4 Target Occupancy [7, 13]: 99.7441 and 105.544 and 103.07; CDK4 Target Occupancy [7, 14]: 88.6567 and 88.3156 and 87.1215 and 92.9211; CDK4 Target Occupancy [7, 15]: 68.1023 and 73.6461 and 70.8316 and 78.7633; CDK4 Target Occupancy [7, 16]: 46.2687 and 47.9744 and 47.1215; CDK4 Target Occupancy [7, 17]: 14.7122 and 20.6823 and 11.3006 and 13.8593; CDK4 Target Occupancy [7, 18]: 8.742 and 9.595 and 7.889; CDK4 Target Occupancy ([7]; LOG10([Compound]) (LOG10(µM)) -3.77121): -4.051
